Common to all, as to experiment: Cell proliferation, crystal violet method
Holding throughout (format): cell-based

Assay [1] has as its system human melanoma cells (A375). The conditions noted are these: for IC50: Homo sapiens, A-375, crystal violet, spectrophotometer, read-out: IC50 anti-proliferative effect, Melanoma (A375). The method, then: (§1) The compound according to the invention, and in particular the synthetic quercetin derivatives described and illustrated herein were investigated in vitro by using human tumour cells and assessing their impact on the tumour proliferative capacity, with regard to the tumours described above. In particular, the following human tumour cell lines were assessed experimentally: 1) HCT116, colon adenocarcinoma cells; 2) H1299, lung adenocarcinoma cells; 3) A375, melanoma cells, and 4) A431, squamous skin cell carcinoma; 5) 786-0, renal carcinoma cells; 6) PC3, prostate carcinoma cells; 7) BT549, mammary carcinoma cells; 8) CAL27, tongue carcinoma cells (belonging to the head-and-neck carcinomas); 9) HepG2, hepatocellular carcinoma cells; 10) PANC-1, pancreas carcinoma cells; 11) T24, bladder carcinoma cells; 12) OVCAR-3, ovarian carcinoma cells. In addition, a normal human cell line, WS1 (skin fibroblasts) was also treated with the novel synthetic compounds.
(§2) Cell proliferation was quantified by the crystal violet method with a spectrophotometer. In short, after acquiring serial images (0, 24 and 48 hrs) with the EVOS XL Cell Imaging System microscope (Thermo Fisher Scientific), the cells imaged at 48 hrs were fixed with paraformaldehyde (4%) and stained with Crystal Violet (1%). Then, the specific absorbance (λ=590 nm) at 48 hrs was measured with a spectrophotometer (Infinite®200 PRO, Tecan). Data analysis was carried out by using ad-hoc Excel files for graphical representation and statistical processing (t-test). Moreover, the results obtained with Crystal Violet were confirmed by using another cell proliferation assessment method based on the real time cellular analyzer XCELLigence RTCA DP (ACEA Biosciences, Inc.). This tool allows cell growth to be monitored from electrical impedance-derived quantitative values (the so-called Cell Index) measured by tiny electrodes located at the base of the culture wells. Proliferation is monitored for several days (5-7) by setting a Cell Index per minute measure on the instrument. The data are analysed by processing various parameters calculated by the dedicated software, such as the cell duplication time, the slope and the Max Cell Index.
(§3) Cell proliferation was quantitated spectrophotometrically by the crystal violet method.

Assay [2] has as its system human colon carcinoma cells (HCT116). The conditions noted are these: for IC50: Homo sapiens, HCT-116, crystal violet, spectrophotometer, read-out: IC50 anti-proliferative effect, CRC (HCT116). The procedure: as §1, §2, §3
For assay [3], the system named is human ovarian carcinoma cells (OVCAR-3). The following applies: for OVCAR-3 cell growth vs vehicle control: 60 μM, FIG. 11a, 11b; for IC50: Homo sapiens, OVCAR-3, crystal violet, spectrophotometer, read-out: IC50 anti-proliferative effect, OCC - (OVCAR). The method, then:
as §1, §2, §3

In general, IC50 refers to the concentration that inhibits the measured activity by half. As for `CCCCCCCC/C=C\CCCCCCCC(=O)NCCOCCOc1c(-c2ccc(O)c(O)c2)oc2cc(O)cc(O)c2c1=O` [Compound 29c], the “A375 cell growth vs vehicle control” value in assay [1] (10 μM and 30 μM, FIG. 14) was “significantly inhibited”. In addition, the figures for the half-inhibitory concentration (IC50) in assay [1] and in assay [2] were 7.03 µM and 3.64 µM, respectively. Further, the “HCT116 cell growth vs vehicle control” value in assay [2] (10 μM and 30 μM, FIG. 15) is “significantly inhibited”.

For `O=C(NCCOCCOc1c(-c2ccc(O)c(O)c2)oc2cc(O)cc(O)c2c1=O)c1ccc(Oc2ccc(C(=O)NCCOCCOc3c(-c4ccc(O)c(O)c4)oc4cc(O)cc(O)c4c3=O)cc2)cc1` [Compound 19c], in assay [3], the “OVCAR-3 cell growth vs vehicle control” value is on record as “significantly inhibit”. For the same molecule, the 50% inhibitory concentration (IC50) was determined as 7.44 µM in assay [3], 3.95 µM in assay [1] and 1.28 µM in assay [2]. Also, the “A375 cell growth vs vehicle control” value in assay [1] (10 μM and 30 μM, FIG. 14) is given as “significantly inhibited”. The “HCT116 cell growth vs vehicle control” value in assay [2] (10 μM and 30 μM, FIG. 15) is listed as “significantly inhibited”.

Turning to `CCCCCCCCCCCCCCCC(=O)NCCOCCOc1c(-c2ccc(O)c(O)c2)oc2cc(O)cc(O)c2c1=O` [Compound 29a], the “A375 cell growth vs vehicle control” value in assay [1] (10 μM and 30 μM, FIG. 14) is reported as “significantly inhibited”. The half-maximal inhibitory concentration (IC50) was 5.21 µM in assay [1] and 15.7 µM in assay [2]. In addition, the “HCT116 cell growth vs vehicle control” value in assay [2] (10 μM and 30 μM, FIG. 15) is given as “significantly inhibited”.

Consider `O=C(CCCOc1c(-c2ccc(O)c(O)c2)oc2cc(O)cc(O)c2c1=O)NCc1ccc(CNC(=O)CCCOc2c(-c3ccc(O)c(O)c3)oc3cc(O)cc(O)c3c2=O)cc1` [Compound 15c], for which the “A375 cell growth vs vehicle control” value in assay [1] (10 μM and 30 μM, FIG. 14) was “significantly inhibited”. The IC50 in assay [1] is 15.5 µM; in assay [2], 15.8 µM. The “HCT116 cell growth vs vehicle control” value in assay [2] (10 μM and 30 μM, FIG. 15) is “significantly inhibited”.

As for `O=C(NCCOCCOc1c(-c2ccc(O)c(O)c2)oc2cc(O)cc(O)c2c1=O)c1ccc(OCCCCCCOc2ccc(C(=O)NCCOCCOc3c(-c4ccc(O)c(O)c4)oc4cc(O)cc(O)c4c3=O)cc2)cc1` [Compound 19d], in assay [3], the “OVCAR-3 cell growth vs vehicle control” value is reported as “significantly inhibit”. Also, the 50% inhibitory concentration (IC50) is 5.01 µM in assay [3], 1.62 µM in assay [1] and 0.74 µM in assay [2]. For the same molecule, the “A375 cell growth vs vehicle control” value in assay [1] (10 μM and 30 μM, FIG. 14) was “significantly inhibited”. The “HCT116 cell growth vs vehicle control” value in assay [2] (10 μM and 30 μM, FIG. 15) is “significantly inhibited”.

On to `O=C(NCCOCCOc1c(-c2ccc(O)c(O)c2)oc2cc(O)cc(O)c2c1=O)c1cc(C(=O)NCCOCCOc2c(-c3ccc(O)c(O)c3)oc3cc(O)cc(O)c3c2=O)cc(C(=O)NCCOCCOc2c(-c3ccc(O)c(O)c3)oc3cc(O)cc(O)c3c2=O)c1` [Compound 22a], for which the “A375 cell growth vs vehicle control” value in assay [1] (30 μM and 100 μM, FIG. 16) is given as “inhibit”. Besides, the IC50 in assay [1] was 136 µM; in assay [2], 49.9 µM. Further, the “HCT116 cell growth vs vehicle control” value in assay [2] (30 μM and 100 μM, FIG. 16) is recorded as “inhibit”.

For `CCCCCCCCCCCCCCCCCCCCCC(=O)NCCOCCOc1c(-c2ccc(O)c(O)c2)oc2cc(O)cc(O)c2c1=O` [Compound 29b], the IC50 in assay [1] and in assay [2] was more than 1000 µM throughout.

For the molecule `O=c1c(OCCOCCO)c(-c2ccc(O)c(O)c2)oc2cc(O)cc(O)c12` [Compound 26], the concentration for half-maximal inhibition (IC50) amounted to 52.3 µM in assay [1] and 81.2 µM in assay [2]. In addition, the “proliferation of melanoma cells (A375) vs vehicle control” value in assay [1] (concentration not given, FIG. 12 for Compound 26) is given as “significantly inhibits”. Further, in assay [2] (100 μM, FIG. 3a, 3b, 13a, 13b), the “HCT116 cell growth vs vehicle control” value is on record as “significantly inhibits”.

As to `O=C(CCCOc1c(-c2ccc(O)c(O)c2)oc2cc(O)cc(O)c2c1=O)N[C@H]1CCCC[C@H]1NC(=O)CCCOc1c(-c2ccc(O)c(O)c2)oc2cc(O)cc(O)c2c1=O` [Compound 15a], the “A375 cell growth vs vehicle control” value in assay [1] (10 μM and 30 μM, FIG. 14) is listed as “significantly inhibited”. Moreover, the half-inhibitory concentration (IC50) is 23 µM in assay [1] and 13.3 µM in assay [2]. The “HCT116 cell growth vs vehicle control” value in assay [2] (10 μM and 30 μM, FIG. 15) was “significantly inhibited”.

In the case of `O=C(CCCOc1c(-c2ccc(O)c(O)c2)oc2cc(O)cc(O)c2c1=O)NCCCOCCOCCOCCCNC(=O)CCCOc1c(-c2ccc(O)c(O)c2)oc2cc(O)cc(O)c2c1=O` [Compound 15b], the “A375 cell growth vs vehicle control” value in assay [1] (10 μM and 30 μM, FIG. 14) is on record as “significantly inhibited”. The concentration for half-maximal inhibition (IC50) in assay [1] came to 24.6 µM; in assay [2] it was 18.6 µM. For the same molecule, the “HCT116 cell growth vs vehicle control” value in assay [2] (10 μM and 30 μM, FIG. 15) is “significantly inhibited”.

For `COc1ccc(-c2ccc(C(=O)NCCOCCOc3c(-c4ccc(O)c(O)c4)oc4cc(O)cc(O)c4c3=O)cc2)cc1` [Compound 29g], the “A375 cell growth vs vehicle control” value in assay [1] (10 μM and 30 μM, FIG. 14) is “significantly inhibited”. The IC50 in assay [1] was 7.84 µM; in assay [2] it was 5.93 µM. Also, the “HCT116 cell growth vs vehicle control” value in assay [2] (10 μM and 30 μM, FIG. 15) was “significantly inhibited”.

With `CCCCC/C=C\C/C=C\C/C=C\C/C=C\CCCC(=O)NCCOCCOc1c(-c2ccc(O)c(O)c2)oc2cc(O)cc(O)c2c1=O` [Compound 29e], the “OVCAR-3 cell growth vs vehicle control” value in assay [3] was “significantly inhibit”. Moreover, the IC50 amounted to 16.1 µM in assay [3], 5.89 µM in assay [1] and 4.36 µM in assay [2]. Moreover, in assay [1] (10 μM and 30 μM, FIG. 14), the “A375 cell growth vs vehicle control” value is on record as “significantly inhibited”. Also, the “HCT116 cell growth vs vehicle control” value in assay [2] (10 μM and 30 μM, FIG. 15) is on record as “significantly inhibited”.

Take `O=C(NCCOCCOc1c(-c2ccc(O)c(O)c2)oc2cc(O)cc(O)c2c1=O)C1CC(C(=O)NCCOCCOc2c(-c3ccc(O)c(O)c3)oc3cc(O)cc(O)c3c2=O)CC(C(=O)NCCOCCOc2c(-c3ccc(O)c(O)c3)oc3cc(O)cc(O)c3c2=O)C1` (centres unmarked) [Compound 22b]: the IC50 in assay [1] is more than 1000 µM; in assay [2], 407 µM.

For `NCCOCCOc1c(-c2ccc(O)c(O)c2)oc2cc(O)cc(O)c2c1=O` [Compound 27], the “HCT116 cell growth vs vehicle control” value in assay [2] (100 μM, FIG. 3a, 3b, 13a, 13b) is listed as “greater anti-proliferative effects”. Moreover, in assay [2], the IC50 is 378 µM.

In the case of `O=C(NCCOCCOc1c(-c2ccc(O)c(O)c2)oc2cc(O)cc(O)c2c1=O)c1cc(C(=O)NCCOCCOc2c(-c3ccc(O)c(O)c3)oc3cc(O)cc(O)c3c2=O)cc(-c2cc(C(=O)NCCOCCOc3c(-c4ccc(O)c(O)c4)oc4cc(O)cc(O)c4c3=O)cc(C(=O)NCCOCCOc3c(-c4ccc(O)c(O)c4)oc4cc(O)cc(O)c4c3=O)c2)c1` [Compound 25a], the concentration for half-maximal inhibition (IC50) in assay [1] was more than 1000 µM; in assay [2], 304 µM.

With `O=C(CCCC(=O)NCCOCCOc1c(-c2ccc(O)c(O)c2)oc2cc(O)cc(O)c2c1=O)NCCOCCOc1c(-c2ccc(O)c(O)c2)oc2cc(O)cc(O)c2c1=O` [Compound 19a], the half-inhibitory concentration (IC50) in assay [2] was more than 1000 µM.

Regarding `CCCCCCCCCCCCCCCC(=O)NCCc1ccc(OCCCC(=O)NCCOCCOc2c(-c3ccc(O)c(O)c3)oc3cc(O)cc(O)c3c2=O)c(OCCCC(=O)NCCOCCOc2c(-c3ccc(O)c(O)c3)oc3cc(O)cc(O)c3c2=O)c1` [Compound 36], in assay [1] (30 μM and 100 μM, FIG. 16), the “A375 cell growth vs vehicle control” value is recorded as “inhibit”. The results for the IC50 in assay [1] and in assay [2] were 89.8 µM and 112 µM, respectively. The “HCT116 cell growth vs vehicle control” value in assay [2] (30 μM and 100 μM, FIG. 16) is listed as “inhibit”.

As to `CC/C=C\C/C=C\C/C=C\C/C=C\C/C=C\C/C=C\CCC(=O)NCCOCCOc1c(-c2ccc(O)c(O)c2)oc2cc(O)cc(O)c2c1=O` [Compound 29f], the “OVCAR-3 cell growth vs vehicle control” value in assay [3] is given as “significantly inhibit”. The half-maximal inhibitory concentration (IC50) is 11.8 µM in assay [3], 5.17 µM in assay [1] and 3.08 µM in assay [2]. The “A375 cell growth vs vehicle control” value in assay [1] (10 μM and 30 μM, FIG. 14) is “significantly inhibited”. In addition, the “HCT116 cell growth vs vehicle control” value in assay [2] (10 μM and 30 μM, FIG. 15) is on record as “significantly inhibited”.

For the molecule `O=C(CCCOc1c(-c2ccc(O)c(O)c2)oc2cc(O)cc(O)c2c1=O)NCC1CCC(CNC(=O)CCCOc2c(-c3ccc(O)c(O)c3)oc3cc(O)cc(O)c3c2=O)CC1` (centres unmarked) [Compound 15d], in assay [1] (10 μM and 30 μM, FIG. 14), the “A375 cell growth vs vehicle control” value was “significantly inhibited”. Further, the results for the IC50 in assay [1] and in assay [2] were 7.16 µM and 12.1 µM, respectively. In addition, the “HCT116 cell growth vs vehicle control” value in assay [2] (10 μM and 30 μM, FIG. 15) is on record as “significantly inhibited”.

As to `CCCCC/C=C\C/C=C\CCCCCCCC(=O)NCCOCCOc1c(-c2ccc(O)c(O)c2)oc2cc(O)cc(O)c2c1=O` [Compound 29d], the “A375 cell growth vs vehicle control” value in assay [1] (10 μM and 30 μM, FIG. 14) is listed as “significantly inhibited”. The IC50 came out at 7.73 µM in assay [1] and 2.89 µM in assay [2]. For the same molecule, the “HCT116 cell growth vs vehicle control” value in assay [2] (10 μM and 30 μM, FIG. 15) is “significantly inhibited”.

The values are drawn from patent US12059400B2, “Medical compound” (VERA SALUS RICERCA S.R.L., priority 2017, dated 2024).
